Laboratory results published in patent publication US8394596B1 (priority 2012, dated 2013).
Where two headings read alike, the source gives them in different places.

Experiments:
Assay type in all cases: binding
[1] = tested on: rabbit anti-BMAA antibody
[2] = tested on: rabbit anti-BMAA antibody; assay: Competitive ELISA for BMAA on anti-rabbit IgG coated plates, estimate of sensitivity (Example 6); details: antibody harvested after fourth booster
Procedure: Rabbits were immunized with 0.5-1.0 mg of immunizing conjugate per rabbit per injection. The immunizing conjugate was emulsified with Complete Freund's Adjuvant for primary injections and with Incomplete Freund's Adjuvant for booster injections. Three or four booster injections were performed at monthly intervals to raise the desired titers. The rabbits were bled on 12±3 days following each booster injection. Antisera were monitored for titer and analyte specificity by capturing the relevant antibodies on ELISA plates coated with anti-rabbit IgG. The captured antibodies were measured in a subsequent step by incubating the plates with a BMAA-horseradish peroxidase (BMAA-HRP).
Three rabbits were immunized with an immunogen in which EDC was used to link BMAA to BSA according to Example 1. Three rabbits were immunized with an immunogen in which DSS was used to link BMAA to BSA according to Example 2. The rabbit with the highest antibody titer when tested with sera collected 14 days after the fourth booster was a rabbit that had been immunized with an immunogen in which DSS was used to link BMAA to BSA according to Example 2. Antibodies from that rabbit, harvested 14 days after the fourth booster were used to generate the data obtained from Example 6 below. Antibodies from that rabbit, harvested 14 days after the fourth booster were used to generate the data obtained from Example 8 below.
(§1) The ELISA method: • 1. Add either 100 μL of either a BMAA solution (0, 10, 25, 50, 100, 250, 500, 1000 ng/mL of BMAA) as a calibrator/standard solutions or 100 μL of a test sample into the wells of the test strips (coated with anti-rabbit IgG). Analysis in duplicate or triplicate is recommended. • 2. Add 50 μL of enzyme conjugate solution (BMAA-HRP) to the individual wells successively using a multi-channel pipette or a stepping pipette. • 3. Add 50 μL of antibody solution (rabbit anti-BMAA; for example one made by diluting by a factor of 8000 antiserum from a rabbit immunized according to Example 3 using BMAA-BSA as the immunogen) to the individual wells successively using a multi-channel pipette or a stepping pipette. Cover the wells with parafilm or tape and mix the contents by moving the strip holder in a circular motion on the benchtop for 30 seconds. Be careful not to spill the contents. The foregoing creates a total assay volume of 200 μL. • 4. Incubate the strips for 90 minutes at room temperature. • 5. Remove the covering and decant the contents of the wells into a sink. Wash the strips four times using the diluted washing buffer solution (1×PBS with 0.1% Tween), using at least a volume of 250 μL of washing buffer for each well in each washing step. Remaining buffer in the wells should be removed by patting the inverted plate dry on a stack of paper towels. • 6. Add 150 μL of substrate (color) solution ((TMB), BioFX cat #TMBW-1000 from Surmodics), to the wells. Cover the wells with parafilm or tape and mix the contents by moving the strip holder in a circular motion on the benchtop for 30 seconds. Be careful not to spill the contents. Incubate the strips for 30 minutes at room temperature. Protect the strips from direct sunlight. • 7. Add 100 μL of stop solution (2N HCl) to the wells in the same sequence as for the substrate solution. • 8. Read the absorbance at 450 nm using a microplate ELISA photometer within 15 minutes after the addition of stopping solution using a computer interfaced ELISA reader (Molecular Devices, Sunnyvale, Calif.). BMAA concentration in the unknown samples was estimated by comparison with a concurrently-run standard curve.
The procedure of Example 5 was followed using known amounts of BMAA. (The antibody preparation was that specified in Example 3 as having been used for Example 6). “Concentration (ng/ml)” refers to the concentration of the BMAA in the 100 μL of calibrator/standard solution referred to in step (1) of Example 5. […]

[3] = tested on: rabbit anti-BMAA antibody; assay: Competitive ELISA for BMAA, second estimate of sensitivity with later-harvested antibody (Example 8); details: antibody harvested after the 6th boost
Procedure: as §1
The procedure of Example 6 was followed except that (1) the BMAA concentrations tested were 5, 10, 25, 100, 250 and 500 ppb (corresponding to 5, 10, 25, 100, 250 and 500 ng/ml) and (2) an antibody preparation harvested later than that used for Example 6 was used. The antibodies harvested for this example were harvested after the 6th boost.
The sensitivity of the assay was estimated to be 2.5 ppb.

[4] = relative to BMAA 50% inhibition at 170 ng/ml, 0.2% compounds tested up to 500 ug/mL, 0.1% up to 1 mg/ml

SMILES: Cl.NCCC(N)C(=O)O (racemic) [D,L-2,4-Diaminobutyric acid hydrochloride]
- Cross-reactivity [1, 4]: 0.1%

SMILES: CNC[C@H](N)C(=O)O [BMAA, β-N-methylamino-L-alanine]
- B/Bo (%) ([2]; BMAA 10 ng/ml in 100 μL standard solution): 93%
- B/Bo (%) ([2]; BMAA 25 ng/ml in 100 μL standard solution): 85%
- B/Bo (%) ([2]; BMAA 50 ng/ml in 100 μL standard solution): 77%
- B/Bo (%) ([2]; BMAA 100 ng/ml in 100 μL standard solution): 64%
- B/Bo (%) ([2]; BMAA 250 ng/ml in 100 μL standard solution): 44%
- B/Bo (%) ([2]; BMAA 500 ng/ml in 100 μL standard solution): 29%
- B/Bo (%) ([2]; BMAA 1000 ng/ml in 100 μL standard solution): 18%
- sensitivity of the assay: concentration of BMAA needed to reduce B/Bo by 5 percent ([2]; Example 6): 7.5 ppb
- concentration of BMAA causing 50% inhibition in the assay ([1]; concentration in the 100 μL standard solution): 170 nanograms/ml
- Cross-reactivity [1, 4]: 100%
- B/Bo (%) ([3]; BMAA 5 ng/ml): 93%
- B/Bo (%) ([3]; BMAA 10 ng/ml): 88%
- B/Bo (%) ([3]; BMAA 25 ng/ml): 77%
- B/Bo (%) ([3]; BMAA 100 ng/ml): 49%
- B/Bo (%) ([3]; BMAA 250 ng/ml): 30%
- B/Bo (%) ([3]; BMAA 500 ng/ml): 19%
- sensitivity of the assay: concentration of BMAA needed to reduce B/Bo by 5 percent ([3]; Example 8): 2.5 ppb

SMILES: Cl.N[C@@H](CS)C(=O)O [L-Cysteine hydrochloride]
- Cross-reactivity [1, 4]: 0.2%

SMILES: N[C@@H](CCC(=O)O)C(=O)O [L-Glutamic acid]
- Cross-reactivity [1, 4]: 0.2%

SMILES: NCCCC(=O)O [γ-Aminobutyric acid]
- Cross-reactivity [1, 4]: 0.2%

SMILES: N[C@@H](CC(=O)O)C(=O)O [L-Aspartic acid]
- Cross-reactivity [1]: 0.2%
